In publication PMC9112895, “Selective Inhibition of Plasmodium falciparum ATPase 6 by Artemisinins and Identification of New Classes of Inhibitors after Expression in Yeast” (Antimicrobial Agents and Chemotherapy, 2022):

Legend:
K667Δpdr5::pUGpd = assay: Yeast whole-cell growth inhibition, vector-only control K667Δpdr5::pUGpd; assay type: cell-based, Saccharomyces cerevisiae; conditions: compound screen
Experimental: The screening assay used here was developed from the protocol used by Pulcini et al. ([13]). A single colony of the yeast strain to be screened was picked and grown in 5 mL of selective medium until stationary phase was reached. The culture was diluted 100-fold in ampicillin-supplemented yeast extract-peptone-dextrose (YPD) medium to an OD at 620 nm (OD620) equivalent to that of lag phase. YPD medium was supplemented with an appropriate concentration of calcium, depending on the transformed strain. The optimal calcium concentration for the PfATP6-expressing strain was 22 mM, and that for the SERCA1a-expressing strain was […]. The optimal calcium concentration was periodically monitored and, if necessary, adjusted using a calcium concentration range of 10 to 30 mM. A final volume of 200 μL of the yeast culture was added to each well of a 96-well plate, with 5 technical replicates included per inhibitor. All inhibitors were dissolved in dimethyl sulfoxide (DMSO) unless otherwise stated. Stock solutions of each inhibitor were diluted 100-fold in each well to give the desired final concentration. […] The 96-well plates were incubated at 30°C for 42 h. The yeast growth was estimated from the absorbance at 620 nm in a Tecan plate reader. […] The data collected were analyzed using GraphPad Prism v9.0 (GraphPad software, San Diego, CA, U.S.A).

SERCA1a [1] = molecular target: T1, SERCA1a (Oryctolagus cuniculus, UniProt P04191); assay: Yeast whole-cell growth inhibition assay, K667Δpdr5[SERCA1a]; assay type: cell-based, rabbit; set-up: containing the SERCA1a coding region from rabbit skeletal fast-twitch muscle; expressed in transfected cells; host or cells: Saccharomyces cerevisiae K667 and K667Δpdr5::HIS
T1 sequence (P04191 other isoform, or with tags, fused parts or gaps): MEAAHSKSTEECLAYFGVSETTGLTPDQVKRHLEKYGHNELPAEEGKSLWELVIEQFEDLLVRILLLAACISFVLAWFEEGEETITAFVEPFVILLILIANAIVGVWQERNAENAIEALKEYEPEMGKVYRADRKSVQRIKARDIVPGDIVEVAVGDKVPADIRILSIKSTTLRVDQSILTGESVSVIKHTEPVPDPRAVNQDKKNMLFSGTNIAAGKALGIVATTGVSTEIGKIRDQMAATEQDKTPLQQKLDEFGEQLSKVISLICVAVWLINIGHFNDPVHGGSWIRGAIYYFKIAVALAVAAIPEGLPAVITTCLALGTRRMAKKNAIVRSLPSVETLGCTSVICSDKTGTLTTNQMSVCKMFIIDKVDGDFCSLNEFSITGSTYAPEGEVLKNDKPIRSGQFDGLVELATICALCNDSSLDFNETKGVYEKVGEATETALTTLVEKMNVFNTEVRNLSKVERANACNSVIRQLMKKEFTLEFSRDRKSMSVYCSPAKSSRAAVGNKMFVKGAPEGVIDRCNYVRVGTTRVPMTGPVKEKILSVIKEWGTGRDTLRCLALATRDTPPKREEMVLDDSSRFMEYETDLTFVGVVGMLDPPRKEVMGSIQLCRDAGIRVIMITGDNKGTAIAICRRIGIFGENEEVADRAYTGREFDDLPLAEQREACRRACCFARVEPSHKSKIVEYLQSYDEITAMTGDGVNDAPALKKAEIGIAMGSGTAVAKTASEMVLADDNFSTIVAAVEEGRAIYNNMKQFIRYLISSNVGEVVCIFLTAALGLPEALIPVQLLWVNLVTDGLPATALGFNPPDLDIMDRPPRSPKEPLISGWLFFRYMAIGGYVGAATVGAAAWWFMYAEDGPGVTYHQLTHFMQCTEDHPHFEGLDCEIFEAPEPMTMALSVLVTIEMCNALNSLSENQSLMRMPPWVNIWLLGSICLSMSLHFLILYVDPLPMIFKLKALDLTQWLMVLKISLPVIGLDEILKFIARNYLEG
Experimental: (§1) Yeast transformations were performed using the method described by Gietz and Schiestl ([48]), and transformants were selected by an uracil auxotrophic marker. Transformations were confirmed by colony PCR. Both K667 and K667Δpdr5::HIS were transformed with the following plasmids: pUGpd plasmid as a vector-only control (derived from pRS316 [49]); br434 plasmid (derived from pRS316 [50]) containing the SERCA1a coding region from rabbit skeletal fast-twitch muscle (pbr434-SERCA1a); and pUGpd containing the yeast-optimized coding region of PfATP6 from Plasmodium falciparum (pUGpd-PfATP6). Site-directed mutagenesis was performed on the SERCA1a coding region to produce the mutation E255L in the protein. Mutations were also introduced into the PfATP6 coding region to produce mutations L263E, A623E, and S769N and the double mutation A623E/S769N ([13]).
(§2) The screening assay used here was developed from the protocol used by Pulcini et al. ([13]). A single colony of the yeast strain to be screened was picked and grown in 5 mL of selective medium until stationary phase was reached. The culture was diluted 100-fold in ampicillin-supplemented yeast extract-peptone-dextrose (YPD) medium to an OD at 620 nm (OD620) equivalent to that of lag phase. YPD medium was supplemented with an appropriate concentration of calcium, depending on the transformed strain. The optimal calcium concentration for the PfATP6-expressing strain was 22 mM, and that for the SERCA1a-expressing strain was […]. The optimal calcium concentration was periodically monitored and, if necessary, adjusted using a calcium concentration range of 10 to 30 mM. A final volume of 200 μL of the yeast culture was added to each well of a 96-well plate, with 5 technical replicates included per inhibitor. All inhibitors were dissolved in dimethyl sulfoxide (DMSO) unless otherwise stated. […] The yeast growth was estimated from the absorbance at 620 nm in a Tecan plate reader. […] The data collected were analyzed using GraphPad Prism v9.0 (GraphPad software, San Diego, CA, U.S.A).

PfATP6 = PfATP6 (Plasmodium falciparum, UniProt Q08853); assay: cell-based; assay type: cell-based; set-up: pUGpd containing the yeast-optimized coding region of PfATP6 from Plasmodium falciparum; expressed in transfected cells; host or cells: Saccharomyces cerevisiae K667 and K667Δpdr5::HIS; conditions: growth inhibition, K667Δpdr5[PfATP6]
Sequence of PfATP6 (Q08853 whole entry): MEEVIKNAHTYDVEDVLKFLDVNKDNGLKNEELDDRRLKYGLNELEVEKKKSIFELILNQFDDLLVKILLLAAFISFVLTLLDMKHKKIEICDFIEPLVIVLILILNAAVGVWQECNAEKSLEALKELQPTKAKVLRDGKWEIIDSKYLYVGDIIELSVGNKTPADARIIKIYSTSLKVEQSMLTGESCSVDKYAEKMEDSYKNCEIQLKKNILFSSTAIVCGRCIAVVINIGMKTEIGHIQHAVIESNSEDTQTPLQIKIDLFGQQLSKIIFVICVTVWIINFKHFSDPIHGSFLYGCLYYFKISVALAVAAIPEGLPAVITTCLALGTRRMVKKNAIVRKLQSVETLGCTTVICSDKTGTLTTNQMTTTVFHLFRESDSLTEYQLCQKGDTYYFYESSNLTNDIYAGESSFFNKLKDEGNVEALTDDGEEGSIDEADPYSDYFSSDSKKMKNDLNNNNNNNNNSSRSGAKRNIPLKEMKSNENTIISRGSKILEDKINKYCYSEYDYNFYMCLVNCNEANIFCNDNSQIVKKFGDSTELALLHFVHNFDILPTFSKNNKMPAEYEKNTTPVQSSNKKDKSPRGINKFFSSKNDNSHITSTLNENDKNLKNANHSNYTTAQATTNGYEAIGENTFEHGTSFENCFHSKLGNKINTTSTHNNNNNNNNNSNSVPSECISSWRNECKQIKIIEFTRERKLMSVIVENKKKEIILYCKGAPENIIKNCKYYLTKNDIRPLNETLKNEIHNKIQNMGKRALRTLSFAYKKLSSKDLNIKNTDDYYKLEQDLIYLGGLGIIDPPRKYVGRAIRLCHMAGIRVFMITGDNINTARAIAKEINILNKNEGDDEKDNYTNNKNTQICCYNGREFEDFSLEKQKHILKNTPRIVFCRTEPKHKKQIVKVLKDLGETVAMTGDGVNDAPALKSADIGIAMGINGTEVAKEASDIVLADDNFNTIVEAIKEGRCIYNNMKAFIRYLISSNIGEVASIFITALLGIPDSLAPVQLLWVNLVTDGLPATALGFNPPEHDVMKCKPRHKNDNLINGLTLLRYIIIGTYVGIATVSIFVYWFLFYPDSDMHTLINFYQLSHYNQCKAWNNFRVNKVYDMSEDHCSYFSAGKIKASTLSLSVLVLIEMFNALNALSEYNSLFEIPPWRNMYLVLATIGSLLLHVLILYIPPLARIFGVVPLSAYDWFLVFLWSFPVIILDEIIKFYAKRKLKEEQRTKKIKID
Experimental: The screening assay used here was developed from the protocol used by Pulcini et al. ([13]). A single colony of the yeast strain to be screened was picked and grown in 5 mL of selective medium until stationary phase was reached. The culture was diluted 100-fold in ampicillin-supplemented yeast extract-peptone-dextrose (YPD) medium to an OD at 620 nm (OD620) equivalent to that of lag phase. YPD medium was supplemented with an appropriate concentration of calcium, depending on the transformed strain. […] The optimal calcium concentration was periodically monitored and, if necessary, adjusted using a calcium concentration range of 10 to 30 mM. A final volume of 200 μL of the yeast culture was added to each well of a 96-well plate, with 5 technical replicates included per inhibitor. All inhibitors were dissolved in dimethyl sulfoxide (DMSO) unless otherwise stated. […] The 96-well plates were incubated at 30°C for 42 h. The yeast growth was estimated from the absorbance at 620 nm in a Tecan plate reader. Growth was normalized with the no-drug control to present data as percent growth. The data collected were analyzed using GraphPad Prism v9.0 (GraphPad software, San Diego, CA, U.S.A).

E255LSERCA1a = molecular target: T2, E255LSERCA1a (Oryctolagus cuniculus, UniProt P04191, E255L); assay: Yeast whole-cell growth inhibition assay, K667Δpdr5[SERCA1a]255L; assay type: cell-based, rabbit
T2 construct: expressed in transfected cells; host or cells: Saccharomyces cerevisiae K667Δpdr5
T2 sequence (P04191 other isoform, or with tags, fused parts or gaps E255L): as the sequence (P04191 other isoform, or with tags, fused parts or gaps) above, with E255L counted along it
Experimental: The E255L mutation was introduced into SERCA1a using the following primers: forward, 5′-[…]-3′; reverse, 5′-[…]-3′. Site-directed mutagenesis was performed using the Agilent Quikchange Lightning site-directed mutagenesis kit, following the manufacturer’s instructions. Mutants were screened by Sanger sequencing (Eurofins, UK).
as §2, with “mM.” for “mM. A final volume of 200 μL of the yeast culture was added to each well of a 96-well plate, with 5 technical replicates included per inhibitor. All inhibitors were dissolved in dimethyl sulfoxide (DMSO) unless otherwise stated.”

SERCA1a [2] = molecular target: T1, SERCA1a; assay: Yeast whole-cell growth inhibition assay, K667::SERCA1a; assay type: cell-based, rabbit; set-up: containing the SERCA1a coding region from rabbit skeletal fast-twitch muscle; expressed in transfected cells; host or cells: Saccharomyces cerevisiae K667 and K667Δpdr5::HIS; conditions: measured at 40 h
Experimental: as §1
The screening assay used here was developed from the protocol used by Pulcini et al. ([13]). […] The optimal calcium concentration was periodically monitored and, if necessary, adjusted using a calcium concentration range of 10 to 30 mM. […] The yeast growth was estimated from the absorbance at 620 nm in a Tecan plate reader. […] The data collected were analyzed using GraphPad Prism v9.0 (GraphPad software, San Diego, CA, U.S.A).

Row | SMILES | inhibition of control strain K667Δpdr5::pUGpd (K667Δpdr5::pUGpd) | inhibition of control strain K667Δpdr5::SERCA1a (SERCA1a [1]; compound screen) | inhibition of PfATP6 in compound screen (PfATP6) | IC50 (E255LSERCA1a) | fold less sensitive, E255LSERCA1a versus wild-type (E255LSERCA1a) | fold lower IC50 in K667DPDR5::SERCA1a than in K667::SERCA1a (SERCA1a [1]) | IC50 (SERCA1a [1]; K667DPDR5::SERCA1a (wild-type E255), measured at 40 h) | IC50 (SERCA1a [2])
1 | O=C(Nc1cccc(C(F)(F)F)c1)c1cc(Cl)ccc1O [MMV665807] | almost no inhibition | almost no inhibition | highest reproducible potency | – | – | – | – | –
2 | C/C=C(/C)C(=O)O[C@H]1C(C)=C2[C@H]([C@@H]1OC(=O)CCCCCCC)[C@@](C)(OC(C)=O)C[C@H](OC(=O)CCC)[C@@]1(O)[C@H]2OC(=O)[C@@]1(C)O [thapsigargin] | – | – | – | 0.794 ± 0.247 µM | 5 fold | > 2 fold | 0.142 ± 0.0439 µM | 0.335 ± 0.0675 µM
